For orientation: DC50 means the midpoint of the concentration-degradation curve.

For this test, the target named is T1, catalytic domain of human PARP14 (residues 1611 to 1801) with NanoLuc tag (Homo sapiens, UniProt Q460N5).
T1 construct: expressed in transfected cells; host or cells: HEK-293T cells (ATCC), plasmid pRTX240 in pcDNA3.1(-)
T1 sequence (Q460N5 1611-1801): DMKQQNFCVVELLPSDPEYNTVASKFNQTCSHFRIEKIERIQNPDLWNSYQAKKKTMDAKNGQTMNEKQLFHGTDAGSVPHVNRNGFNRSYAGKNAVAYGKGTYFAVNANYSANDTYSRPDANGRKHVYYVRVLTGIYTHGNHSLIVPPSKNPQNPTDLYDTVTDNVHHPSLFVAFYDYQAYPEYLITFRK
Description: NanoLuc assay for the degradation of PARP14. It is filed as cell-based. The following applies: Assay A; NanoLuc-PARP14 overexpressed in HEK-293T cells; 2 hours at 37 degrees; luminescence. The method, then:
The catalytic domain of human PARP14 (residues 1611 to 1801, GenBank Accession No. NM_017554) was inserted into the pcDNA3.1(−) vector. The insert also contained a NanoLuc tag on the N terminus of the PARP14 protein.
Degradation of PARP14 protein was assessed using measurement of the NanoLuc tag as proxy for the PARP14 protein. PARP14 with NanoLuc tag was overexpressed in […] cells (ATCC) using the plasmid described in Table 1. Plasmid DNA was diluted in empty vector DNA then added to 1.163 mL of phenol red free OptiMEM (Thermo Fisher). Plasmid DNA concentrations used in each assay described in Table 1. The plasmid DNA was mixed with 78.5 μL of Fugene HD (Promega) and allowed to incubate 5 minutes.
Next, 1.125 mL were added to 10 million 293T cells in DMEM (Thermo Fisher) supplemented with 10% FBS (VWR) and 1× Glutamax (Gibco). The transfection was incubated for 24 hrs at 37 degrees in an incubator supplemented with 5% CO2. The cells were then trypsinized and brought up in phenol red free OptiMEM media. Transfected HEK-293T cells were diluted to […] and then added to assay plate (Corning 3574) using a Multidrop (Thermo Fisher) to add 40 μL per well of the 384 well plate, resulting in 5,000 cells per well. 40 nL of a dose response curve diluted in DMSO of each test compound was added to the cell plate using a Mosquito (TTP Labtech) and the plate was incubated at 37 degrees for 2 hours. Assay plate was brought to room temperature then 20 μL per well of NanoGlo (Promega) was added to the plate. Luminescence was measured on an Envision (Perkin Elmer).
The average DMSO was calculated from 32 wells containing 0.1% DMSO only in columns 12 and 24 of the assay plate. The % of DMSO values were calculated as described below: […]
The % of DMSO values were plotted as a function of compound concentration and the following 4-parameter fit was applied to derive the DC50 values:
where top, bottom, and Hill Coefficient are allowed to float. Y is the % of DMSO and X is the compound concentration.
DC50 data for the Example compounds is provided below in Table 2 (“+” is <0.1 μM; “++” is ≥0.1 μM and <1 μM; and “+++” is ≥1 μM).

For `O=C1CCC(N2C(=O)c3cccc(N4CCC(CN5CCC(C(=O)N6CCC(SCc7nc8cc(NC9CCCC9)cc(F)c8c(=O)[nH]7)CC6)CC5)CC4)c3C2=O)C(=O)N1` (centres unmarked) [Example 23, 4-(4-((4-(4-(((7-(cyclopentylamino)-5-fluoro-4-oxo-3,4-dihydroquinazolin-2-yl)methyl)thio)piperidine-1-carbonyl)piperidin-1-yl)methyl)piperidin-1-yl)-2-(2,6-dioxopiperidin-3-yl)isoindoline-1,3-dione], the DC50 is < 0.1 µM. Next, `CC(=O)N1CCC(COc2cc(F)c3c(=O)[nH]c(CSC4CCN(CC(=O)N5CCC(CN6CCN(c7ccc8c(c7)C(=O)N(C7CCC(=O)NC7=O)C8=O)CC6)CC5)CC4)nc3c2)CC1` (centres unmarked) [Example 28, 5-(4-((1-(2-(4-(((7-((1-acetylpiperidin-4-yl)methoxy)-5-fluoro-4-oxo-3,4-dihydroquinazolin-2-yl)methyl)thio)piperidin-1-yl)acetyl)piperidin-4-yl)methyl)piperazin-1-yl)-2-(2,6-dioxopiperidin-3-yl)isoindoline-1,3-dione]: < 0.1 µM; `O=C(CN1CCC(SCc2nc3cc(OCC4CCOCC4)cc(F)c3c(=O)[nH]2)CC1)NCCCCNC(=O)c1cccc(N2CCC(=O)NC2=O)c1` [Example 4, 3-(2,4-dioxotetrahydropyrimidin-1(2H)-yl)-N-(4-(2-(4-(((5-fluoro-4-oxo-7-((tetrahydro-2H-pyran-4-yl)methoxy)-3,4-dihydroquinazolin-2-yl)methyl)thio)piperidin-1-yl)acetamido)butyl)benzamide]: 0.1 to 1 µM. In the case of `O=C1CCC(N2C(=O)c3ccc(N4CCN(CC5CCN(C(=O)CN6CCC(SCc7nc8cc(NC9CCCC9)cc(F)c8c(=O)[nH]7)CC6)CC5)CC4)cc3C2=O)C(=O)N1` (centres unmarked) [Example 29, 5-(4-((1-(2-(4-(((7-(cyclopentylamino)-5-fluoro-4-oxo-3,4-dihydroquinazolin-2-yl)methyl)thio)piperidin-1-yl)acetyl)piperidin-4-yl)methyl)piperazin-1-yl)-2-(2,6-dioxopiperidin-3-yl)isoindoline-1,3-dione] it was < 0.1 µM. In the case of `O=C(CN1CCC(SCc2nc3cc(OCC4CCOCC4)cc(F)c3c(=O)[nH]2)CC1)NCCCCCCN1CCC(c2ccc(NC3CCC(=O)NC3=O)cc2)CC1` (centres unmarked) [Example 5, N-(6-(4-(4-((2,6-dioxopiperidin-3-yl)amino)phenyl)piperidin-1-yl)hexyl)-2-(4-(((5-fluoro-4-oxo-7-((tetrahydro-2H-pyran-4-yl)methoxy)-3,4-dihydroquinazolin-2-yl)methyl)thio)piperidin-1-yl)acetamide] it was < 0.1 µM. With `O=C(CN1CCC(SCc2nc3cc(OCC4CCOCC4)cc(F)c3c(=O)[nH]2)CC1)NCC(=O)N1CCC(c2ccc(NC3CCC(=O)NC3=O)cc2)CC1` (centres unmarked) [Example 10, N-(2-(4-(4-((2,6-dioxopiperidin-3-yl)amino)phenyl)piperidin-1-yl)-2-oxoethyl)-2-(4-(((5-fluoro-4-oxo-7-((tetrahydro-2H-pyran-4-yl)methoxy)-3,4-dihydroquinazolin-2-yl)methyl)thio)piperidin-1-yl)acetamide], the DC50 was < 0.1 µM.

Turning to `O=C(CN1CCC(SCc2nc3cc(OCC4CCOCC4)cc(F)c3c(=O)[nH]2)CC1)NCCCCN1CCC(c2ccc(NC3CCC(=O)NC3=O)cc2)CC1` (centres unmarked) [Example 7, N-(4-(4-(4-((2,6-dioxopiperidin-3-yl)amino)phenyl)piperidin-1-yl)butyl)-2-(4-(((5-fluoro-4-oxo-7-((tetrahydro-2H-pyran-4-yl)methoxy)-3,4-dihydroquinazolin-2-yl)methyl)thio)piperidin-1-yl)acetamide], the DC50 was < 0.1 µM. Next, `O=C(CN1CCC(SCc2nc3cc(OCC4CCOCC4)cc(F)c3c(=O)[nH]2)CC1)NCC(=O)N1CCC(c2cccc(NC3CCC(=O)NC3=O)c2)CC1` (centres unmarked) [Example 11, N-(2-(4-(3-((2,6-dioxopiperidin-3-yl)amino)phenyl)piperidin-1-yl)-2-oxoethyl)-2-(4-(((5-fluoro-4-oxo-7-((tetrahydro-2H-pyran-4-yl)methoxy)-3,4-dihydroquinazolin-2-yl)methyl)thio)piperidin-1-yl)acetamide]: < 0.1 µM; `CC(=O)N1CCC(COc2cc(F)c3c(=O)[nH]c(CSC4CCN(C(=O)CNc5cccc6c5C(=O)N(C5CCC(=O)NC5=O)C6=O)CC4)nc3c2)CC1` (centres unmarked) [Example 21, 4-((2-(4-(((7-((1-acetylpiperidin-4-yl)methoxy)-5-fluoro-4-oxo-3,4-dihydroquinazolin-2-yl)methyl)thio)piperidin-1-yl)-2-oxoethyl)amino)-2-(2,6-dioxopiperidin-3-yl)isoindoline-1,3-dione]: < 0.1 µM. As to `O=C(CN1CCC(SCc2nc3cc(OCC4CCOCC4)cc(F)c3c(=O)[nH]2)CC1)NCCN1CCC(c2ccc(NC3CCC(=O)NC3=O)cc2)CC1` (centres unmarked) [Example 9, N-(2-(4-(4-((2,6-dioxopiperidin-3-yl)amino)phenyl)piperidin-1-yl)ethyl)-2-(4-(((5-fluoro-4-oxo-7-((tetrahydro-2H-pyran-4-yl)methoxy)-3,4-dihydroquinazolin-2-yl)methyl)thio)piperidin-1-yl)acetamide], the DC50 is < 0.1 µM. In the case of `CC(=O)N1CCC(COc2cc(F)c3c(=O)[nH]c(CCC4CCN(CC(=O)N5CCC(CN6CCN(c7cccc8c7C(=O)N(C7CCC(=O)NC7=O)C8=O)CC6)CC5)CC4)nc3c2)CC1` (centres unmarked) [Example 27, 4-(4-((1-(2-(4-(2-(7-((1-acetylpiperidin-4-yl)methoxy)-5-fluoro-4-oxo-3,4-dihydroquinazolin-2-yl)ethyl)piperidin-1-yl)acetyl)piperidin-4-yl)methyl)piperazin-1-yl)-2-(2,6-dioxopiperidin-3-yl)isoindoline-1,3-dione] it was < 0.1 µM; in that of `CC(=O)N1CCC(COc2cc(F)c3c(=O)[nH]c(CSC4CCN(CC5CCN(c6cccc7c6C(=O)N(C6CCC(=O)NC6=O)C7=O)CC5)CC4)nc3c2)CC1` (centres unmarked) [Example 39, 4-(4-((4-(((7-((1-acetylpiperidin-4-yl)methoxy)-5-fluoro-4-oxo-3,4-dihydroquinazolin-2-yl)methyl)thio)piperidin-1-yl)methyl)piperidin-1-yl)-2-(2,6-dioxopiperidin-3-yl)isoindoline-1,3-dione], < 0.1 µM. Next, `O=C1CCC(N2C(=O)c3ccc(N4CCC(CN5CCC(SCc6nc7cc(OCC8CC8)cc(F)c7c(=O)[nH]6)CC5)CC4)cc3C2=O)C(=O)N1` (centres unmarked) [Example 40, 5-(4-((4-(((7-(cyclopropylmethoxy)-5-fluoro-4-oxo-3,4-dihydroquinazolin-2-yl)methyl)thio)piperidin-1-yl)methyl)piperidin-1-yl)-2-(2,6-dioxopiperidin-3-yl)isoindoline-1,3-dione]: < 0.1 µM. Consider `O=C1CCC(N2C(=O)c3cccc(N4CCN(CC5CCN(C(=O)CN6CCC(SCc7nc8cc(NC9CCCC9)cc(F)c8c(=O)[nH]7)CC6)CC5)CC4)c3C2=O)C(=O)N1` (centres unmarked) [Example 1, 4-(4-((1-(2-(4-(((7-(cyclopentylamino)-5-fluoro-4-oxo-3,4-dihydroquinazolin-2-yl)methyl)thio)piperidin-1-yl)acetyl)piperidin-4-yl)methyl)piperazin-1-yl)-2-(2,6-dioxopiperidin-3-yl)isoindoline-1,3-dione], for which the DC50 was < 0.1 µM.
